According to patent US20250049806A1, “PHARMACEUTICAL COMPOSITION FOR PROVIDING TREATMENT FOR OR PREVENTING ALPORT SYNDROME” (UBE Corporation, priority 2021, published 2025):

Experiment: Transcellular transport test using Caco2 cell
Format: in vitro ADME
Details: human, Caco-2, apical-to-basolateral (A-to-B), pH=7.4, 10 µM compound
Protocol: Caco2 cells (purchased from ATCC) were cultured in DMEM medium (Thermo Fisher Scientific, Inc., 11965) containing 10% FBS (Thermo Fisher Scientific, Inc., 10082) and 1% penicillin/streptomycin/amphotericin B (Thermo Fisher Scientific, Inc., 15240). A transcellular transport test was carried out in accordance with MultiScreen Caco2 Drug Transport Assembly in a 96-well system (Application Note AN1727EN, MultiScreen Caco-2 Assay System, Merck) by partially modifying it. The Caco2 cells were inoculated at a cell density of 4×10^4 cells/well onto a micropore polycarbonate insert of a 96-well plate (Merck, Millcell-96 culture insert plate 0.4 μm pore size, well membrane area=0.11 cm^2, PSHT004S5) and cultured for 20 to 22 days, and the resulting monolayer was used in the transcellular transport test. The medium of the inoculated cells was replaced with a fresh one every 3 to 4 days.
Apical-to-basolateral (A-to-B) transport in the Caco2 cell monolayer membrane was performed by using HBSS (Thermo Fisher Scientific, Inc., 14025) medium (pH=7.4) containing 20 mM HEPES (Thermo Fisher Scientific, Inc., 15630), and adding HEPES-containing HBSS medium containing 10 µM compound (a 10 mM solution of the compound in DMSO was added at a 1000-fold dilution; final DMSO concentration: 0.1%) at 75 μL/well to the apical side and HEPES-containing HBSS medium supplemented with no compound at 250 μL/well to the basolateral side, followed by culture at 37° C. for 90 minutes. After culture, a 100 μL aliquot was collected from the basolateral side, and the concentration of a permeated compound was measured by LC-MS/MS under measurement conditions mentioned later. Papp (apparent permeability; cm/sec) was calculated from the determined concentration. Papp was determined according to the expression given below by calculating the slope (dA/dt; nmol/sec) of a straight line drawn between two points 0 minutes and zero amount of the compound in a graph plotted with an assay time (90 min) on the abscissa against the amount of the compound in the solution on the permeated side on the ordinate. As for an assay concentration, the concentration in the compound in the HEPES-containing HBSS medium containing the added compound was measured by UV-HPLC under measurement conditions mentioned later.
C0: assay concentration, S: plate membrane area=0.11 cm^2
• LC: LC20 or LC30 HPLC system manufactured by Shimadzu Corp. • Column: Phenomenex Kinetex C18 (50 mm×2.1 mm, 2.6 μm) • Column temperature: 40° C. • Flow rate: 0.3 mL/min • Mobile phase A: 0.1% aqueous formic acid solution • Mobile phase B: 0.1% formic acid, 50% acetonitrile/methanol mixed solution • Gradient: 0-2 min; A/B=90/10 to 10/90, 2-3 min; A/B=10/90, 3-3.01 min; A/B=10/90 to 90/10 • MS: Q-Trap3200 manufactured by AB Sciex Pte. Ltd. • Ionization: ESI • Mode: Positive
• LC: LC20 or LC30 HPLC system manufactured by Shimadzu Corp. • Column: Phenomenex Kinetex C18 (100 mm×2.1 mm, 2.6 μm) • Column temperature: 40° C. • Flow rate: 0.25 mL/min • Mobile phase A: 0.1% aqueous formic acid solution • Mobile phase B: 0.1% formic acid, 50% acetonitrile/methanol mixed solution • Gradient: 0-3 min; A/B=90/10, 3-11 min; A/B=90/10 to 5/95, 11-15 min; A/B=5/95, 15-15.1 min; A/B=5/95 to 90/10 • UV detector: photodiode array detector
A: Papp>1×10^−6 (cm/sec), B: 1×10^−6 (cm/sec)≥Papp>5×10^−7 (cm/sec), C: 5×10^−7 (cm/sec)≥Papp>1×10^−7 (cm/sec), or D: Papp≤1×10^−7 (cm/sec).

| SMILES | Papp A→B at 90 min, 10 µM [nm/s] |
| --- | --- |
| O=C(O)C[C@H](NC(=O)CNC(=O)c1cc(NC2=NCC(F)CN2)c2cn[nH]c2c1)c1cc(Br)cc(C(F)(F)F)c1 (stereo partly drawn) [2-(b), (3S)-3-(3-bromo-5-(trifluoromethyl)phenyl)-3-(2-(4-((5-fluoro-1,4,5,6-tetrahydropyrimidin-2-yl)amino)-1H-indazole-6-carboxamido)acetamido)propanoic acid] | 5 to 10 |
| O=C(O)C[C@H](NC(=O)CNC(=O)c1cc(NC2=NCC(F)CN2)c2cn[nH]c2c1)c1cccc(OC2CC2)c1 (stereo partly drawn) [40-(b), (3S)-3-(3-cyclopropoxyphenyl)-3-(2-(4-((5-fluoro-1,4,5,6-tetrahydropyrimidin-2-yl)amino)-1H-indazole-6-carboxamido)acetamido)propanoic acid] | > 10 |
| O=C(O)C[C@H](NC(=O)CNC(=O)c1cc(NC2=NCC(F)CN2)c2cn[nH]c2c1)c1cc(C(F)(F)F)ccc1Cl (stereo partly drawn) [12-(b), (3S)-3-(2-chloro-5-(trifluoromethyl)phenyl)-3-(2-(4-((5-fluoro-1,4,5,6-tetrahydropyrimidin-2-yl)amino)-1H-indazole-6-carboxamido)acetamido)propanoic acid] | > 10 |
| O=C(O)C[C@H](NC(=O)CNC(=O)c1cc(NC2=NCC(F)CN2)c2cn[nH]c2c1)c1cc(Cl)cc(Cl)c1 (stereo partly drawn) [17-(b), (3S)-3-(3,5-dichlorophenyl)-3-(2-(4-((5-fluoro-1,4,5,6-tetrahydropyrimidin-2-yl)amino)-1H-indazole-6-carboxamido)acetamido)propanoic acid] | > 10 |
| Cc1cc([C@H](CC(=O)O)NC(=O)CNC(=O)c2cc(NC3=NCC(F)CN3)c3cn[nH]c3c2)cc(C(F)(F)F)c1 (stereo partly drawn) [4-(b), (3S)-3-(2-(4-((5-fluoro-1,4,5,6-tetrahydropyrimidin-2-yl)amino)-1H-indazole-6-carboxamido)acetamido)-3-(3-methyl-5-(trifluoromethyl)phenyl)propanoic acid] | > 10 |
| O=C(O)C[C@H](NC(=O)CNC(=O)c1cc(NC2=NCC(F)CN2)c2cn[nH]c2c1)c1cc(Br)cc(Br)c1 (stereo partly drawn) [19-(b), (3S)-3-(3,5-dibromophenyl)-3-(2-(4-((5-fluoro-1,4,5,6-tetrahydropyrimidin-2-yl)amino)-1H-indazole-6-carboxamido)acetamido)propanoic acid] | > 10 |
| O=C(O)C[C@H](NC(=O)CNC(=O)c1cc(NC2=NCC(F)CN2)c2cn[nH]c2c1)c1cc(OC(F)F)cc(OC(F)F)c1 (stereo partly drawn) [30-(b), (3S)-3-(3,5-bis(difluoromethoxy)phenyl)-3-(2-(4-((5-fluoro-1,4,5,6-tetrahydropyrimidin-2-yl)amino)-1H-indazole-6-carboxamido)acetamido)propanoic acid] | 5 to 10 |
| O=C(O)C[C@H](NC(=O)CNC(=O)c1cc(NC2=NCC(F)CN2)c2cn[nH]c2c1)c1cccc(OC(F)(F)F)c1 (stereo partly drawn) [36-(b), (3S)-3-(2-(4-((5-fluoro-1,4,5,6-tetrahydropyrimidin-2-yl)amino)-1H-indazole-6-carboxamido)acetamido)-3-(3-(trifluoromethoxy)phenyl)propanoic acid] | > 10 |
| O=C(O)C[C@H](NC(=O)CNC(=O)c1cc(NC2=NCC(F)CN2)cc2[nH]ncc12)c1ccc(F)c(C(F)(F)F)c1 (stereo partly drawn) [55-(b), (3S)-3-(2-(6-((5-fluoro-1,4,5,6-tetrahydropyrimidin-2-yl)amino)-1H-indazole-4-carboxamido)acetamido)-3-(4-fluoro-3-(trifluoromethyl)phenyl)propanoic acid] | 1 to 5 |
| O=C(O)C[C@H](NC(=O)CNC(=O)c1cc(NC2=NCC(F)CN2)cc2[nH]ncc12)c1cc(Cl)cc(C(F)(F)F)c1 (stereo partly drawn) [52-(b), (3S)-3-(3-chloro-5-(trifluoromethyl)phenyl)-3-(2-(6-((5-fluoro-1,4,5,6-tetrahydropyrimidin-2-yl)amino)-1H-indazole-4-carboxamido)acetamido)propanoic acid] | 1 to 5 |
| O=C(O)C[C@H](NC(=O)CNC(=O)c1cc(NC2=NCC(F)CN2)c2cn[nH]c2c1)c1ccc(C(F)(F)F)cc1 (stereo partly drawn) [47-(b), (3S)-3-(2-(4-((5-fluoro-1,4,5,6-tetrahydropyrimidin-2-yl)amino)-1H-indazole-6-carboxamido)acetamido)-3-(4-(trifluoromethyl)phenyl)propanoic acid] | > 10 |
| O=C(O)C[C@H](NC(=O)CNC(=O)c1cc(NC2=NCC(F)CN2)c2cn[nH]c2c1)c1cccc(-n2cccn2)c1 (stereo partly drawn) [43-(b), (3S)-3-(3-(1H-pyrazol-1-yl)phenyl)-3-(2-(4-((5-fluoro-1,4,5,6-tetrahydropyrimidin-2-yl)amino)-1H-indazole-6-carboxamido)acetamido)propanoic acid] | > 10 |
| O=C(O)C[C@H](NC(=O)CNC(=O)c1cc(NC2=NCC(F)CN2)c2cn[nH]c2c1)c1cc(Cl)cc(C(F)(F)F)c1 (some centres unmarked) [1-(b)] | > 10 |

Continued, values first:

| Papp A→B at 90 min, 10 µM [nm/s] | SMILES |
| --- | --- |
| > 10 | O=C(O)C[C@H](NC(=O)CNC(=O)c1cc(NC2=NCC(F)CN2)c2cn[nH]c2c1)c1cc(Cl)c(F)c(C(F)(F)F)c1 (stereo partly drawn) [15-(b), (3S)-3-(3-chloro-4-fluoro-5-(trifluoromethyl)phenyl)-3-(2-(4-((5-fluoro-1,4,5,6-tetrahydropyrimidin-2-yl)amino)-1H-indazole-6-carboxamido)acetamido)propanoic acid] |
| > 10 | O=C(O)C[C@H](NC(=O)CNC(=O)c1cc(NC2=NCC(F)CN2)c2cn[nH]c2c1)c1cc(Cl)cc(OC(F)(F)F)c1 (stereo partly drawn) [31-(b), (3S)-3-(3-chloro-5-(trifluoromethoxy)phenyl)-3-(2-(4-((5-fluoro-1,4,5,6-tetrahydropyrimidin-2-yl)amino)-1H-indazole-6-carboxamido)acetamido)propanoic acid] |
| > 10 | COc1ccc([C@H](CC(=O)O)NC(=O)CNC(=O)c2cc(NC3=NCC(F)CN3)c3cn[nH]c3c2)cc1Br (stereo partly drawn) [16-(b), (3S)-3-(3-bromo-4-methoxyphenyl)-3-(2-(4-((5-fluoro-1,4,5,6-tetrahydropyrimidin-2-yl)amino)-1H-indazole-6-carboxamido)acetamido)propanoic acid] |
| 5 to 10 | O=C(O)C[C@H](NC(=O)CNC(=O)c1cc(NC2=NCC(F)CN2)c2cn[nH]c2c1)c1cc(C(F)(F)F)cc(C(F)(F)F)c1 (stereo partly drawn) [7-(b), (3S)-3-(3,5-bis(trifluoromethyl)phenyl)-3-(2-(4-((5-fluoro-1,4,5,6-tetrahydropyrimidin-2-yl)amino)-1H-indazole-6-carboxamido)acetamido)propanoic acid] |
| 1 to 5 | O=C(O)C[C@H](NC(=O)CNC(=O)c1cc(NC2=NCC(F)CN2)cc2[nH]ncc12)c1cc(Br)cc(C(F)(F)F)c1 (stereo partly drawn) [53-(b), (3S)-3-(3-bromo-5-(trifluoromethyl)phenyl)-3-(2-(6-((5-fluoro-1,4,5,6-tetrahydropyrimidin-2-yl)amino)-1H-indazole-4-carboxamido)acetamido)propanoic acid] |
| > 10 | O=C(O)C[C@H](NC(=O)CNC(=O)c1cc(NC2=NCC(F)CN2)c2cn[nH]c2c1)c1ccc(OC(F)F)cc1 (stereo partly drawn) [46-(b), (3S)-3-(4-(difluoromethoxy)phenyl)-3-(2-(4-((5-fluoro-1,4,5,6-tetrahydropyrimidin-2-yl)amino)-1H-indazole-6-carboxamido)acetamido)propanoic acid] |
| > 10 | O=C(O)C[C@H](NC(=O)CNC(=O)c1cc(NC2=NCC(F)CN2)c2cn[nH]c2c1)c1cccc(C(F)(F)F)c1Cl (stereo partly drawn) [10-(b), (3S)-3-(2-chloro-3-(trifluoromethyl)phenyl)-3-(2-(4-((5-fluoro-1,4,5,6-tetrahydropyrimidin-2-yl)amino)-1H-indazole-6-carboxamido)acetamido)propanoic acid] |
